Source: publication PMC8645336, “Benchmarking a highly selective USP30 inhibitor for enhancement of mitophagy and pexophagy” (Life Science Alliance, 2021)

Experiments:
Experiment in all cases: biochemical
Parameters in all cases: Ubiquigent DUB profiler selectivity panel, remaining enzyme activity as % of control
Details in all cases: read-out: % of control remaining
[1] = target: T1, BAP1 (Homo sapiens, UniProt Q92560)
T1 sequence (Q92560 1-729): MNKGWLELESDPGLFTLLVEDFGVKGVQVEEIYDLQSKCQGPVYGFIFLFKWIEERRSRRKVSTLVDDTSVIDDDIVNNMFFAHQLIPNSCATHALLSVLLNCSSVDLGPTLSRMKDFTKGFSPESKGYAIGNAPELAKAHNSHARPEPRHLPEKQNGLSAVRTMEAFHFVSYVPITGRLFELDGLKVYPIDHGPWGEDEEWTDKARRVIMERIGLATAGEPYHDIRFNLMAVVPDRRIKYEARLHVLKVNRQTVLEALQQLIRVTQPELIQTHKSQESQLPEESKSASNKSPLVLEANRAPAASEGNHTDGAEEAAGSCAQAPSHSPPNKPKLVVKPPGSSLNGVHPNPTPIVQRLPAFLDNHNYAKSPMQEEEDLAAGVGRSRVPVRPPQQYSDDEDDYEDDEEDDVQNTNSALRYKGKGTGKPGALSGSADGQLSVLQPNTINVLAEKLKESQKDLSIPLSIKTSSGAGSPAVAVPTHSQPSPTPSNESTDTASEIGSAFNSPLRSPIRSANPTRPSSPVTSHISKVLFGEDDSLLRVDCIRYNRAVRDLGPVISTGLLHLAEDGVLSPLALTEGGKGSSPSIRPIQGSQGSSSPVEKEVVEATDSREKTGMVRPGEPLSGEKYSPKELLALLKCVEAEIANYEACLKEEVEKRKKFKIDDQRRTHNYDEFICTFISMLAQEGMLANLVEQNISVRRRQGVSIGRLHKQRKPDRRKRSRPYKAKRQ
Outline: (§1)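 In YFP-PRKN-overexpressing hTERT-RPE1 cells, 1 h antimycin A plus oligomycin A (1 μM each) with CMPD-39, then Western blot of TOMM20 ubiquitylation. Target engagement: 2 h compound, then 10 min HA-Ub-PA at 37°C, read as USP30 shift. DUB panel (>40 enzymes) screened at 1-100 μM.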

[2] = target: T2, Cezanne (Homo sapiens, UniProt Q6GQQ9)
T2 construct: gene OTUD7B
T2 sequence (Q6GQQ9 1-843): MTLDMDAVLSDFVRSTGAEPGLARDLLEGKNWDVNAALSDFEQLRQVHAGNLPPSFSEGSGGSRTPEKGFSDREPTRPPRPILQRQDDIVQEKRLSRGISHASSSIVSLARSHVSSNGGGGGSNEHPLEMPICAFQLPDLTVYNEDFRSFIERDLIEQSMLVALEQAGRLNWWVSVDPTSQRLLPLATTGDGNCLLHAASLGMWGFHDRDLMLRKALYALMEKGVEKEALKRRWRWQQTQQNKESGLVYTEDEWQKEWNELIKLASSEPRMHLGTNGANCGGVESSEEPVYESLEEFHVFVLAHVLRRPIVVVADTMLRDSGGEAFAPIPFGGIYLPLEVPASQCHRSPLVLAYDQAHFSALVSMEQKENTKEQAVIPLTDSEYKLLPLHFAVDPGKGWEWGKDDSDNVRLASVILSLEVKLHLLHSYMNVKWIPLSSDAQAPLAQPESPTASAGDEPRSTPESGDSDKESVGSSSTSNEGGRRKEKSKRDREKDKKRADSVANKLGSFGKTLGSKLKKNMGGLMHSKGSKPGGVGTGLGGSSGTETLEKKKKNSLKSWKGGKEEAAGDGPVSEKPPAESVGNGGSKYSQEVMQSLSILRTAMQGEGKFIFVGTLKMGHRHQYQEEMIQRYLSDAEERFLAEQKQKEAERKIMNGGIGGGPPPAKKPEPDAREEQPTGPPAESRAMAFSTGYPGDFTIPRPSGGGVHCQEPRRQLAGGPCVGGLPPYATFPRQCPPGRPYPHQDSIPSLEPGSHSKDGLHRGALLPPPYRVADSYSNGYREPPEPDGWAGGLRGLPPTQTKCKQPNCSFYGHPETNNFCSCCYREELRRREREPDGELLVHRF
Outline: as §1

[3] = target: T3, UCHL5 (Homo sapiens, UniProt Q9Y5K5)
T3 sequence (Q9Y5K5 1-329): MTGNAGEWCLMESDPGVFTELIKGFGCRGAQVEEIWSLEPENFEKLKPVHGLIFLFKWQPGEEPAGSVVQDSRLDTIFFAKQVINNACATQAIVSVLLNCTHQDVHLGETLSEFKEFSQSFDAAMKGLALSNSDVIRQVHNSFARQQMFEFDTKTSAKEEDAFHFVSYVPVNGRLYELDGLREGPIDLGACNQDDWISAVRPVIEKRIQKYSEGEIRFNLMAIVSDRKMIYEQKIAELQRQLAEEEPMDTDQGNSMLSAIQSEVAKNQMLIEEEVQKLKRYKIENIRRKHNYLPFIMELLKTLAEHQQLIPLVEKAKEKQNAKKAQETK
Outline: as §1

- remaining activity at 1 µM [1]: 104%
- remaining activity at 10 µM [1]: 89%
- remaining activity at 100 µM [1]: 96.5%
- remaining activity at 1 µM [2]: 98.7%
- remaining activity at 10 µM [2]: 98.8%
- remaining activity at 100 µM [2]: 94.4%
- remaining activity at 1 µM [3]: 107%
- remaining activity at 10 µM [3]: 98%
- remaining activity at 100 µM [3]: 101%
SMILES: CC(C)(C)NS(=O)(=O)c1ccc(NC(=O)[C@H](Cc2ccccc2)NC(=O)c2ccc(F)cc2)cc1 [compound 39, CMPD-39]
